# Patent US9808448B2, “Pharmaceutical compounds and use of same in cancer and tauopathies” (THE REGENTS OF THE UNIVERSITY OF MICHIGAN, priority 2013, dated 2017)
# Experiments:
# [1] = Phase I, anti-cancer agent; cited from earlier work
# human Hsc70 (HSPA8) = target: T1, human Hsc70 (HSPA8) (Homo sapiens, UniProt P11142); experiment: ELISA competitive binding assay (biotinylated MKT-077 displacement)
# T1 construct: made in house
# Procedure: Binding of MKT-077 analogs to immobilized Hsp70 was evaluated using a competitive ELISA. In this established assay, a biotinylated version of MKT-077 is bound to immobilized human Hsc70 (HSPA8) and potential competitors are tested for their ability to block the interaction.
# A sample of Hsc70 (50 μL; 0.06 mg/mL) was immobilized in clear flat-bottom 96-well plate in MES buffer (50 mM 2-(N-morpholino)ethanesulfonic acid, pH 5.2) at 37° C. overnight. After discarding the excess protein solution, each well was washed three times with 150 μL TBS-T buffer (25 mM Tris, 140 mM NaCl, 2.7 mM KCl, 0.01% Tween-20, pH 7.4). Then, 1 μL of compound (1% DMSO) was diluted into 24 μL of binding buffer (100 mM Tris, 20 mM KCl, 6 mM MgCl2, 0.01% Triton-X100) and incubated at room temperature for 30 min. Biotin labeled MKT-077 (final concentration 1 μM; 25 μL) was subsequently added into each well and the mixture was incubated at room temperature for another 3 hrs. The wells were washed with 150 μL TBS-T buffer three times prior to blocking with 100 μL 3% bovine serum albumin (BSA) in TBS-T buffer for 5 min at room temperature. After the removal of the BSA solution, 50 μL of HRP-streptavidin (Pierce Biotechnology, 1:50000 TBS-T dilution) solution was added and the plates were incubated at room temperature for 1 hr. The HRP-streptavidin solution was removed and wells were washed three times with 150 μL TBS-T. […] substrate (Cell Signaling Technology 100 μL) was added into each well and incubated at room temperature until a visible blue color was shown in wells (about 20 min). 1 M HCl stop solution was then added into each well to yield a yellow solution and the absorbance at 450 nm was recorded on SpectraMax M5 (Molecular Devices).
# [2] = system: MCF-7, MCF-10A and MB-MDA-231 cells; experiment: MTT assays, three cell lines; type: cell-based; details: range over MCF-7, MCF-10A and MB-MDA-231 cells
# Procedure: YM-08 was tested whether it might retain the anti-cancer activity of MKT-077.
# [3] = system: human 4R0N tau in HeLaC3 cells; experiment: Tau levels in HeLaC3 cells by Western blot; type: cell-based; details: 30 μM
# Procedure: To determine whether YM-08 might also accelerated tau degradation, HeLaC3 cells, which stably over-express human 4R0N tau, were treated with compound. After 24 hours, the levels of phosphorylated (p396/404) tau and total tau were measured by Western blot. […] This cellular activity is not as dramatic as that of MKT-077, which reduced tau levels by >80% at 30 μM (FIG. 4D); however, reducing tau by only about 50% is predicted to provide benefits in some AD models.
# [4] = target: prokaryotic Hsp70 (DnaK) binding to denatured luciferase (Escherichia coli, UniProt P0A6Y8); experiment: Luciferase binding assay; type: biochemical; details: 50 μM
# prokaryotic Hsp70 (DnaK) binding to denatured luciferase, sequence (P0A6Y8 whole entry): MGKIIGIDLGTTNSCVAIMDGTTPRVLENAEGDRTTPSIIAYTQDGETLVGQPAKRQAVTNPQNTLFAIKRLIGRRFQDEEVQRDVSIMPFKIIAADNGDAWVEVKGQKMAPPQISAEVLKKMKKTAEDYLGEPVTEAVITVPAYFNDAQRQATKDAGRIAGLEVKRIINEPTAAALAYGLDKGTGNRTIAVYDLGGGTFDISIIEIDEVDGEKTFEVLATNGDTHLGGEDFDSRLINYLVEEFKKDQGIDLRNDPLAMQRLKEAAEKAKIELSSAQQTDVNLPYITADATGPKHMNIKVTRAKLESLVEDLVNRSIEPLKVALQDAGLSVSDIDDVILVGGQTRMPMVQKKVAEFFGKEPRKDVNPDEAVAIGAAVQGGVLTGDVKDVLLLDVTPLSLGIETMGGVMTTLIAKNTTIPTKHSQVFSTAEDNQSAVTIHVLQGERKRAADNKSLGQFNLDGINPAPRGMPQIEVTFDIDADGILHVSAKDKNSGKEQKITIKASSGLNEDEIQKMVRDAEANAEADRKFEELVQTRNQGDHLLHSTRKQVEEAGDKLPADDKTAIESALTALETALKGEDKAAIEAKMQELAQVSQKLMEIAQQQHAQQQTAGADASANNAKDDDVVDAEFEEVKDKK
# Procedure: Next, the effect of chaperone functions by binding of YM-08 to Hsp70 was investigated. […] This profile is shared with other allosteric Hsp70 inhibitors. As another test of chaperone function, the effects of the compounds on the binding of Hsp70 to a misfolded protein were measured. In previous work, MKT-077 stabilized the interaction between prokaryotic Hsp70 (DnaK) and denatured luciferase. Briefly, this assay involves immobilizing unfolded luciferase in microtiter plates and measuring binding to DnaK. […] To explore whether YM-08 might also enhance binding of Hsp70 to a more physiologically relevant substrate, binding of tau to immobilized human Hsc70 was measured.
# Binding of prokaryotic Hsp70 (DnaK) to denatured luciferase was measured as previously described, in e.g., Miyata, et al., J. Biomol. Screen, 15:1211-1219 (2010). Briefly, firefly luciferase (0.2 mg/mL) was proteolyzed with trypsin and immobilized in 96-well microtiter plates. After washing, the binding of luciferase to DnaK (500 nM) was measured using an anti-DnaK antibody and HRP secondary antibody. A similar strategy was used to monitor binding of human Hsc70 to tau, as previously described in Thompson, et al., ACS Chem. Biol., 7:1677-1686 (2012).
# [5] = in vivo; cited from earlier work
# T1 sequence (P11142 whole entry): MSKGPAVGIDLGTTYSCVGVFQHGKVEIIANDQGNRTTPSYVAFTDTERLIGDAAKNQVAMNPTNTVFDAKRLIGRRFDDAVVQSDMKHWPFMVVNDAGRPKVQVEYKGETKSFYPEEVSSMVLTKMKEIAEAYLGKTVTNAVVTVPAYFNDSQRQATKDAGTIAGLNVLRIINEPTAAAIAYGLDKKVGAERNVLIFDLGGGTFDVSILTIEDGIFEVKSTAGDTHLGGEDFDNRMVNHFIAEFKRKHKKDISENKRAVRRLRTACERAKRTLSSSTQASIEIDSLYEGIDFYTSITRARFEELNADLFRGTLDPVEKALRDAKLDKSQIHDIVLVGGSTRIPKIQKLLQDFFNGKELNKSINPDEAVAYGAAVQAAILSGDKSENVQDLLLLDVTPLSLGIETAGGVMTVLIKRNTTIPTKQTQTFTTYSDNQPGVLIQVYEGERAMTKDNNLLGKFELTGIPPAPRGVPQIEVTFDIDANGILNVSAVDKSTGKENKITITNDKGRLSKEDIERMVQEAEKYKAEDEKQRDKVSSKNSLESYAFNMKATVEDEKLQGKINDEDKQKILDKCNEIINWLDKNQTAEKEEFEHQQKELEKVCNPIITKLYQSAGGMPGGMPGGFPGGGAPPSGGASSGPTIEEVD
structure (smiles),measurement,setting,value
"CCn1c(=O)/c(=C2\Sc3ccccc3N2C)s/c1=C\c1cccc[n+]1CC [MKT-077, 1-ethyl-2-((Z)-((E)-3-ethyl-5-(3-methylbenzo[d]thiazol-2(3H)-ylidene)-4-oxothiazolidin-2-ylidene)methyl)pyridin-1-ium]",clinical toxicity,[1],nephrotoxicity in a subset of patients
same,IC50,human Hsc70 (HSPA8),6.4 ± 0.23 µM
same,EC50,[2],1.4 to 3 µM
same,reduction of tau levels,[3],> 80%
same,enhancement of DnaK binding to denatured luciferase,[4],about 30%
same,BBB crossing,[5],does not cross the BBB
same,kidney accumulation,[5],dramatic accumulation of MKT-077 in the kidney
